{"source": "patent US20240207264A1", "about": "“PHARMACEUTICAL COMPOSITIONS COMPRISING INHIBITORS OF THE ANDROGEN RECEPTOR AND USES THEREOF” (ESSA PHARMA INC., priority 2021, published 2024)", "key": {"PC-3": {"tested_on": "PC-3", "assay": "PC-3 prostate cancer xenograft model", "type": "in vivo", "settings": "PC-3 (non functional AR), intact male mice, 30 mg/kg, Solution, qd28", "procedure": "(§1) Compound A's activity was measured in a variety of castrate-sensitive and castrate-resistant prostate cancer (CRPC) xenograft models (Table 32)."}, "HID28": {"tested_on": "HID28", "assay": "Enzalutamide resistant patient-derived xenograft (PDX) model HID28", "type": "in vivo, nude mice", "settings": "HID28 PDX (AR+ PSA+), castrated male mice, 60 mg/kg, SDD, qd28", "procedure": "as §1\nFor example, intact male nude mice were engrafted with HID28 tumor fragments and once tumors reached ˜150 mm^3 the mice were castrated. The mice were enrolled in the experiment once the tumors started to regrow, 10 days post-castration. Compound A was tested in the HID28 PDX model at 60 mg/kg, QD for 28 days using SDD formulation with HPMCAS-H in 0.5% Methocel A4M in water.\nMean tumor volume in castrated nude mice bearing enzalutamide resistant patient-derived xenograft (PDX) model HID28 was measured after oral treatment with solid dispersion composition of Compound A or enzalutamide for 28 days (n=6-7 per group) is shown in FIG. 16B."}}, "data": [{"smiles": "CC(C)(c1ccc(OCc2ccnc(NS(C)(=O)=O)n2)cc1)c1cc(Cl)c(OCCCl)c(C#N)c1", "note": "[Compound A, N-(4-((4-(2-(3-chloro-4-(2-chloroethoxy)-5-cyanophenyl)propan-2-yl)phenoxy)methyl)pyrimidin-2-yl)methanesulfonamide]", "values": [{"measurement": "TGI (Tumor Growth Inhibition)", "setting": "PC-3", "value": 0, "unit": "%"}, {"measurement": "TGI (Tumor Growth Inhibition)", "setting": "HID28", "value": 58, "unit": "%"}]}]}
